Test results reported in PubChem BioAssay AID248 (DTP/NCI, 2004).
Several values for one entry are separate records, joined by “and”; a condition that tells them apart may be missing. Equal values may be shown once. Toxic doses and inconclusive results are not listed. Rule as the data show it: active = T/C of 150% or more; inactive = T/C below 125%.

Test system: L1210 leukemia ip in BDF1 mice, survival T/C
Assay: NCI In Vivo Anticancer Drug Screen. Data for tumor model L1210 Leukemia (intraperitoneal) in B6D2F1 (BDF1) mice
Details: higher = longer survival
Summary of the method: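 Tumor cells were implanted, animals were treated, and survival was followed. The result divides the treated measurement by the vehicle-control measurement.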

Measured: T/C

CC[C@](O)(C(=O)O)c1cc2n(c(=O)c1CO)Cc1cc3ccccc3nc1-2
inactive: endpoint: mean survival time, dose: 0.12 mg/kg/injection, schedule: Q#A X Z (ip), vehicle: saline 106 % of control | endpoint: mean survival time, dose: 0.18 mg/kg/injection, schedule: Q01DX009 (ip), vehicle: saline 105 % of control and 108 % of control | endpoint: mean survival time, dose: 0.25 mg/kg/injection, schedule: Q01DX006 (iv), vehicle: saline 107 % of control | endpoint: mean survival time, dose: 0.25 mg/kg/injection, schedule: Q01DX009 (ip), vehicle: saline 98 % of control | endpoint: mean survival time, dose: 0.25 mg/kg/injection, schedule: Q01DX010 (ip), vehicle: saline 117 % of control | endpoint: mean survival time, dose: 0.25 mg/kg/injection, schedule: Q01DX Z (im), vehicle: saline 107 % of control | endpoint: mean survival time, dose: 0.25 mg/kg/injection, schedule: Q01DX Z (sc), vehicle: saline 107 % of control | endpoint: mean survival time, dose: 0.25 mg/kg/injection, schedule: Q## X Z (ip), vehicle: saline 97 % of control | endpoint: mean survival time, dose: 0.25 mg/kg/injection, schedule: Q#A X Z (ip), vehicle: saline 114 % of control | endpoint: mean survival time, dose: 0.35 mg/kg/injection, schedule: Q01DX009 (ip), vehicle: saline 106 % of control and 113 % of control | endpoint: mean survival time, dose: 0.5 mg/kg/injection, schedule: Q01DX006 (iv), vehicle: saline 103 % of control | endpoint: mean survival time, dose: 0.5 mg/kg/injection, schedule: Q01DX009 (ip), vehicle: saline 104 % of control and 112 % of control | endpoint: mean survival time, dose: 0.5 mg/kg/injection, schedule: Q01DX009 (oral), vehicle: water 97 % of control | endpoint: mean survival time, dose: 0.5 mg/kg/injection, schedule: Q01DX Z (im), vehicle: saline 108 % of control | endpoint: mean survival time, dose: 0.5 mg/kg/injection, schedule: Q01DX Z (ip), vehicle: saline 122 % of control | endpoint: mean survival time, dose: 0.5 mg/kg/injection, schedule: Q01DX Z (oral), vehicle: saline 105 % of control | endpoint: mean survival time, dose: 0.5 mg/kg/injection, schedule: Q01DX Z (sc), vehicle: saline 107 % of control | endpoint: mean survival time, dose: 0.5 mg/kg/injection, schedule: Q## X Z (ip), vehicle: saline 103 % of control | endpoint: mean survival time, dose: 0.7 mg/kg/injection, schedule: Q01DX009 (ip), vehicle: saline 106 % of control and 108 % of control | endpoint: mean survival time, dose: 0.75 mg/kg/injection, schedule: Q03DX Z (ip), vehicle: saline 101 % of control | endpoint: mean survival time, dose: 1.0 mg/kg/injection, schedule: Q01DX006 (iv), vehicle: saline 111 % of control | endpoint: mean survival time, dose: 1.0 mg/kg/injection, schedule: Q01DX009 (ip), vehicle: saline 111 % of control and 112 % of control | endpoint: mean survival time, dose: 1.0 mg/kg/injection, schedule: Q01DX009 (oral), vehicle: water 113 % of control | endpoint: mean survival time, dose: 1.0 mg/kg/injection, schedule: Q01DX Z (im), vehicle: saline 113 % of control | endpoint: mean survival time, dose: 1.0 mg/kg/injection, schedule: Q01DX Z (oral), vehicle: saline 117 % of control | endpoint: mean survival time, dose: 1.0 mg/kg/injection, schedule: Q01DX Z (sc), vehicle: saline 113 % of control | endpoint: mean survival time, dose: 1.0 mg/kg/injection, schedule: Q## X Z (ip), vehicle: saline 114 % of control | endpoint: mean survival time, dose: 1.3 mg/kg/injection, schedule: Q## X008 (ip), vehicle: saline 102 % of control | endpoint: mean survival time, dose: 1.5 mg/kg/injection, schedule: Q03DX Z (ip), vehicle: saline 109 % of control | endpoint: mean survival time, dose: 2.0 mg/kg/injection, schedule: Q01DX001 (ip), vehicle: saline 106 % of control and 113 % of control (2×) | endpoint: mean survival time, dose: 2.0 mg/kg/injection, schedule: Q01DX006 (iv), vehicle: saline 114 % of control and 122 % of control | endpoint: mean survival time, dose: 2.0 mg/kg/injection, schedule: Q01DX010 (ip), vehicle: saline 110 % of control | endpoint: mean survival time, dose: 2.0 mg/kg/injection, schedule: Q01DX010 (oral), vehicle: saline 97 % of control | endpoint: mean survival time, dose: 2.0 mg/kg/injection, schedule: Q01DX Z (im), vehicle: saline 116 % of control | endpoint: mean survival time, dose: 2.0 mg/kg/injection, schedule: Q01DX Z (sc), vehicle: saline 114 % of control and 120 % of control | endpoint: mean survival time, dose: 2.0 mg/kg/injection, schedule: Q07DX Z (ip), vehicle: saline 109 % of control | endpoint: mean survival time, dose: 2.5 mg/kg/injection, schedule: Q01DX001 (oral), vehicle: water 111 % of control | endpoint: mean survival time, dose: 2.5 mg/kg/injection, schedule: Q04DX002 (ip), vehicle: saline 100 % of control and 108 % of control | endpoint: mean survival time, dose: 2.5 mg/kg/injection, schedule: Q04DX003 (ip), vehicle: saline 110 % of control | endpoint: mean survival time, dose: 2.5 mg/kg/injection, schedule: Q## X003 (ip), vehicle: saline 105 % of control and 109 % of control | endpoint: mean survival time, dose: 2.5 mg/kg/injection, schedule: Q## X003 (oral), vehicle: saline 107 % of control | endpoint: mean survival time, dose: 2.5 mg/kg/injection, schedule: Q## X003 (oral), vehicle: water 107 % of control | endpoint: mean survival time, dose: 2.5 mg/kg/injection, schedule: Q## X008 (ip), vehicle: saline 98 % of control | endpoint: mean survival time, dose: 2.6 mg/kg/injection, schedule: Q## X024 (ip), vehicle: saline 101 % of control | endpoint: mean survival time, dose: 2.6 mg/kg/injection, schedule: Q## X024 (oral), vehicle: water 100 % of control | endpoint: mean survival time, dose: 3.0 mg/kg/injection, schedule: Q01DX Z (sc), vehicle: saline 120 % of control | endpoint: mean survival time, dose: 3.0 mg/kg/injection, schedule: Q03DX Z (ip), vehicle: saline 118 % of control | endpoint: mean survival time, dose: 4.0 mg/kg/injection, schedule: Q01DX001 (ip), vehicle: saline 105 % of control and 110 % of control and 116 % of control | endpoint: mean survival time, dose: 4.0 mg/kg/injection, schedule: Q01DX009 (oral), vehicle: water 120 % of control | endpoint: mean survival time, dose: 4.0 mg/kg/injection, schedule: Q01DX Z (ip), vehicle: saline 97 % of control and 116 % of control | endpoint: mean survival time, dose: 4.0 mg/kg/injection, schedule: Q01DX Z (oral), vehicle: saline 101 % of control | endpoint: mean survival time, dose: 4.5 mg/kg/injection, schedule: Q01DX006 (iv), vehicle: saline 122 % of control | endpoint: mean survival time, dose: 4.5 mg/kg/injection, schedule: Q01DX Z (im), vehicle: saline 93 % of control | endpoint: mean survival time, dose: 5.0 mg/kg/injection, schedule: Q01DX001 (oral), vehicle: water 115 % of control | endpoint: mean survival time, dose: 5.0 mg/kg/injection, schedule: Q04DX002 (ip), vehicle: saline 110 % of control and 113 % of control | endpoint: mean survival time, dose: 5.0 mg/kg/injection, schedule: Q04DX003 (ip), vehicle: saline 116 % of control | endpoint: mean survival time, dose: 5.0 mg/kg/injection, schedule: Q04DX003 (ip), vehicle: water 118 % of control and 120 % of control | endpoint: mean survival time, dose: 5.0 mg/kg/injection, schedule: Q## X003 (ip), vehicle: saline 114 % of control | endpoint: mean survival time, dose: 5.0 mg/kg/injection, schedule: Q## X003 (oral), vehicle: water 121 % of control | endpoint: mean survival time, dose: 5.0 mg/kg/injection, schedule: Q## X008 (ip), vehicle: saline 105 % of control | endpoint: mean survival time, dose: 5.0 mg/kg/injection, schedule: Q## X024 (ip), vehicle: saline 120 % of control | endpoint: mean survival time, dose: 6.0 mg/kg/injection, schedule: Q01DX001 (ip), vehicle: saline 110 % of control | endpoint: mean survival time, dose: 6.5 mg/kg/injection, schedule: Q01DX006 (iv), vehicle: saline 112 % of control | endpoint: mean survival time, dose: 6.5 mg/kg/injection, schedule: Q01DX Z (sc), vehicle: saline 105 % of control | endpoint: mean survival time, dose: 8.0 mg/kg/injection, schedule: Q01DX001 (ip), vehicle: saline 105 % of control and 115 % of control | endpoint: mean survival time, dose: 8.0 mg/kg/injection, schedule: Q01DX009 (ip), vehicle: saline 120 % of control | endpoint: mean survival time, dose: 10.0 mg/kg/injection, schedule: Q01DX001 (ip), vehicle: saline 112 % of control | endpoint: mean survival time, dose: 10.0 mg/kg/injection, schedule: Q## X008 (ip), vehicle: saline 117 % of control | endpoint: mean survival time, dose: 10.0 mg/kg/injection, schedule: Q## X008 (oral), vehicle: water 121 % of control | endpoint: mean survival time, dose: 19.0 mg/kg/injection, schedule: Q03DX Z (ip), vehicle: saline 121 % of control | endpoint: mean survival time, dose: 50.0 mg/kg/injection, schedule: Q04DX003 (ip), vehicle: saline 105 % of control | endpoint: mean survival time, dose: 80.0 mg/kg/injection, schedule: Q04DX003 (ip), vehicle: saline 114 % of control | endpoint: mean survival time, dose: 160.0 mg/kg/injection, schedule: Q## X003 (ip), vehicle: saline 110 % of control | endpoint: mean survival time, dose: 125.0 micrograms/kg/injection, schedule: Q01DX Z (ip), vehicle: saline 111 % of control | endpoint: mean survival time, dose: 250.0 micrograms/kg/injection, schedule: Q01DX Z (ip), vehicle: saline 114 % of control | endpoint: median survival time, dose: 5.0 mg/kg/injection, schedule: Q04DX003 (ip), vehicle: saline 122 % of control | endpoint: median survival time, dose: 50.0 mg/kg/injection, schedule: Q01DX001 (ip), vehicle: saline 110 % of control and 119 % of control | endpoint: median survival time, dose: 83.3 mg/kg/injection, schedule: Q04DX003 (ip), vehicle: saline 110 % of control and 121 % of control | endpoint: median survival time, dose: 100.0 mg/kg/injection, schedule: Q04DX003 (ip), vehicle: saline 94 % of control and 116 % of control | endpoint: median survival time, dose: 148.0 mg/kg/injection, schedule: Q01DX001 (ip), vehicle: saline 115 % of control

NC(CCS)C(=O)O (stereo not drawn)
inactive: endpoint: mean survival time, dose: 100.0 mg/kg/injection, schedule: Q04DX002 (ip), vehicle: saline 107 % of control | endpoint: mean survival time, dose: 200.0 mg/kg/injection, schedule: Q04DX002 (ip), vehicle: saline 110 % of control | endpoint: mean survival time, dose: 400.0 mg/kg/injection, schedule: Q04DX002 (ip), vehicle: saline 96 % of control
